Results reported in US9695155B2, “Herbicidal substituted pyrimidinyloxy benzene compounds” (E. I. DU PONT DE NEMOURS AND COMPANY, priority 2013, dated 2017).

Columns and labels:
deadnettle = assay: Test D preemergence; format: in vivo, Lamium amplexicaule; conditions: Lamium amplexicaule, pre-emergence
Procedure, shortened: (§1)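 Values are 0–100 visual control ratings (0 none, 100 complete) given 7–21 days after application. Soil for preemergence was silt loam; postemergence plants stood 2–18 cm tall.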

field violet = assay: Test D preemergence; format: in vivo, Viola arvensis; conditions: Viola arvensis, pre-emergence
Procedure, shortened: as §1

oilseed rape = assay: Test D postemergence; format: in vivo, Brassica napus; conditions: Brassica napus, post-emergence
Procedure, shortened: as §1

Italian ryegrass = assay: Test E postemergence; format: in vivo, Lolium multiflorum; conditions: Lolium multiflorum, post-emergence, read-out: Plant response rating, Ryegrass, Italian
Procedure, shortened: (§2)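 Compound in a non-phytotoxic solvent mixture with surfactant was applied preemergence to seeds in silt loam soil, or postemergence to plants 2 to 18 cm tall grown in peat-based potting medium. Plants were kept in a greenhouse for 14 to 21 days, then rated visually against untreated controls on a 0 (no effect) to 100 (complete control) scale.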

lambsquarters [1] = assay: Test D postemergence; format: in vivo, Chenopodium album; conditions: Chenopodium album, post-emergence
Procedure, shortened: as §1

galium = assay: Test D postemergence; format: in vivo, Galium aparine; conditions: Galium, post-emergence
Procedure, shortened: as §1

blackgrass = assay: Test D postemergence; format: in vivo, Alopecurus myosuroides; conditions: Alopecurus myosuroides, post-emergence, Postemergence, scale 0 to 100 (0 no effect, 100 complete control), read-out: Plant response rating, Blackgrass
Procedure, shortened: as §1

kochia = assay: Test D postemergence; format: in vivo, Kochia scoparia; conditions: Bassia scoparia, post-emergence
Procedure, shortened: as §1

green foxtail = assay: Test D postemergence; format: in vivo, Setaria viridis; conditions: Setaria viridis, post-emergence
Procedure, shortened: as §1

canarygrass = assay: Test D postemergence; format: in vivo, Phalaris minor; conditions: Phalaris minor, post-emergence
Procedure, shortened: as §1

lambsquarters [2] = assay: Test D preemergence; format: in vivo, Chenopodium album; conditions: Chenopodium album, pre-emergence
Procedure, shortened: as §1

wild oat = assay: Test D postemergence; format: in vivo, Avena fatua; conditions: Avena fatua, post-emergence
Procedure, shortened: as §1

dayflower = assay: Test E postemergence; format: in vivo, Commelina virginica; conditions: Commelina virginica, post-emergence, read-out: Plant response rating, Dayflower, VA
Procedure, shortened: as §2

[3] = Postemergence, 31 g ai/ha, scale 0 to 100
[4] = Postemergence, 62 g ai/ha, scale 0 to 100
[5] = Postemergence, 125 g ai/ha, scale 0 to 100
[6] = postemergence, 8 g ai/ha, scale 0 to 100, 0 no effect, 100 complete control
[7] = postemergence, 16 g ai/ha, scale 0 to 100, 0 no effect, 100 complete control

Clc1cnc(Oc2ccccc2-n2cc(Br)cn2)nc1 [Compound 7, 2-[2-(4-bromo-1H-pyrazol-1-yl)phenoxy]-5-chloropyrimidine]
pest or weed control at 16 g/ha (deadnettle; 16 g ai/ha, scale 0 (no effect) to 100 (complete control), read-out: Plant response rating, Deadnettle): 0% | pest or weed control at 31 g/ha (deadnettle; 31 g ai/ha, scale 0-100, read-out: Plant response rating, Deadnettle): 0% | pest or weed control at 62 g/ha (deadnettle; 62 g ai/ha, scale 0-100, read-out: Plant response rating, Deadnettle): 10% | pest or weed control at 125 g/ha (deadnettle; 125 g ai/ha, scale 0-100, read-out: Plant response rating, Deadnettle): 20% | pest or weed control at 250 g/ha (deadnettle; 250 g ai/ha, scale 0-100, read-out: Plant response rating, Deadnettle): 80% | pest or weed control at 16 g/ha (field violet; 16 g ai/ha, scale 0 (no effect) to 100 (complete control), read-out: Plant response rating, Field Violet): 0% | pest or weed control at 31 g/ha (field violet; 31 g ai/ha, scale 0-100, read-out: Plant response rating, Field Violet): 0% | pest or weed control at 62 g/ha (field violet; 62 g ai/ha, scale 0-100, read-out: Plant response rating, Field Violet): 20% | pest or weed control at 125 g/ha (field violet; 125 g ai/ha, scale 0-100, read-out: Plant response rating, Field Violet): 70% | pest or weed control at 250 g/ha (field violet; 250 g ai/ha, scale 0-100, read-out: Plant response rating, Field Violet): 80% | plant injury at 16 g/ha (oilseed rape; 16 g ai/ha, scale 0-100, read-out: Plant response rating, Oilseed Rape): 75% | plant injury at 31 g/ha (oilseed rape; 31 g ai/ha, scale 0 to 100 (0 no effect, 100 complete control), read-out: Plant response rating, Oilseed Rape): 80% | plant injury at 62 g/ha (oilseed rape; 62 g ai/ha, scale 0 to 100 (0 no effect, 100 complete control), read-out: Plant response rating, Oilseed Rape): 95% | plant injury at 125 g/ha (oilseed rape; 125 g ai/ha, scale 0 to 100 (0 no effect, 100 complete control), read-out: Plant response rating, Oilseed Rape): 100% | plant injury at 250 g/ha (oilseed rape; 250 g ai/ha, scale 0 to 100 (0 no effect, 100 complete control), read-out: Plant response rating, Oilseed Rape): 100% | pest or weed control at 31 g/ha (Italian ryegrass; [3]): 0% | pest or weed control at 62 g/ha (Italian ryegrass; [4]): 0% | pest or weed control at 125 g/ha (Italian ryegrass; [5]): 0% | pest or weed control at 8 g/ha (Italian ryegrass; [6]): 0% | pest or weed control at 16 g/ha (Italian ryegrass; [7]): 0% | pest or weed control at 16 g/ha (lambsquarters [1]; 16 g ai/ha, scale 0-100, read-out: Plant response rating, Lambsquarters): 70% | pest or weed control at 31 g/ha (lambsquarters [1]; 31 g ai/ha, scale 0 to 100 (0 no effect, 100 complete control), read-out: Plant response rating, Lambsquarters): 70% | pest or weed control at 62 g/ha (lambsquarters [1]; 62 g ai/ha, scale 0 to 100 (0 no effect, 100 complete control), read-out: Plant response rating, Lambsquarters): 80% | pest or weed control at 125 g/ha (lambsquarters [1]; 125 g ai/ha, scale 0 to 100 (0 no effect, 100 complete control), read-out: Plant response rating, Lambsquarters): 90% | pest or weed control at 250 g/ha (lambsquarters [1]; 250 g ai/ha, scale 0 to 100 (0 no effect, 100 complete control), read-out: Plant response rating, Lambsquarters): 100% | pest or weed control at 16 g/ha (galium; 16 g ai/ha, scale 0-100, read-out: Plant response rating, Galium): 20% | pest or weed control at 31 g/ha (galium; 31 g ai/ha, scale 0 to 100 (0 no effect, 100 complete control), read-out: Plant response rating, Galium): 40% | pest or weed control at 62 g/ha (galium; 62 g ai/ha, scale 0 to 100 (0 no effect, 100 complete control), read-out: Plant response rating, Galium): 70% | pest or weed control at 125 g/ha (galium; 125 g ai/ha, scale 0 to 100 (0 no effect, 100 complete control), read-out: Plant response rating, Galium): 80% | pest or weed control at 250 g/ha (galium; 250 g ai/ha, scale 0 to 100 (0 no effect, 100 complete control), read-out: Plant response rating, Galium): 90% | pest or weed control at 62 g/ha (blackgrass; 62 g ai/ha): 5% | pest or weed control at 16 g/ha (blackgrass; 16 g ai/ha): 0% | pest or weed control at 31 g/ha (blackgrass; 31 g ai/ha): 5% | pest or weed control at 125 g/ha (blackgrass; 125 g ai/ha): 10% | pest or weed control at 250 g/ha (blackgrass; 250 g ai/ha): 25% | pest or weed control at 16 g/ha (kochia; 16 g ai/ha, scale 0-100, read-out: Plant response rating, Kochia): 30% | pest or weed control at 31 g/ha (kochia; 31 g ai/ha, scale 0 to 100 (0 no effect, 100 complete control), read-out: Plant response rating, Kochia): 70% | pest or weed control at 62 g/ha (kochia; 62 g ai/ha, scale 0 to 100 (0 no effect, 100 complete control), read-out: Plant response rating, Kochia): 100% | pest or weed control at 125 g/ha (kochia; 125 g ai/ha, scale 0 to 100 (0 no effect, 100 complete control), read-out: Plant response rating, Kochia): 100% | pest or weed control at 250 g/ha (kochia; 250 g ai/ha, scale 0 to 100 (0 no effect, 100 complete control), read-out: Plant response rating, Kochia): 100% | pest or weed control at 16 g/ha (green foxtail; 16 g ai/ha, scale 0-100, read-out: Plant response rating, Foxtail, Green): 0% | pest or weed control at 31 g/ha (green foxtail; 31 g ai/ha, scale 0 to 100 (0 no effect, 100 complete control), read-out: Plant response rating, Foxtail, Green): 0% | pest or weed control at 62 g/ha (green foxtail; 62 g ai/ha, scale 0 to 100 (0 no effect, 100 complete control), read-out: Plant response rating, Foxtail, Green): 0% | pest or weed control at 125 g/ha (green foxtail; 125 g ai/ha, scale 0 to 100 (0 no effect, 100 complete control), read-out: Plant response rating, Foxtail, Green): 10% | pest or weed control at 250 g/ha (green foxtail; 250 g ai/ha, scale 0 to 100 (0 no effect, 100 complete control), read-out: Plant response rating, Foxtail, Green): 20% | pest or weed control at 16 g/ha (canarygrass; 16 g ai/ha, scale 0-100, read-out: Plant response rating, Canarygrass): 0% | pest or weed control at 31 g/ha (canarygrass; 31 g ai/ha, scale 0 to 100 (0 no effect, 100 complete control), read-out: Plant response rating, Canarygrass): 0% | pest or weed control at 62 g/ha (canarygrass; 62 g ai/ha, scale 0 to 100 (0 no effect, 100 complete control), read-out: Plant response rating, Canarygrass): 5% | pest or weed control at 125 g/ha (canarygrass; 125 g ai/ha, scale 0 to 100 (0 no effect, 100 complete control), read-out: Plant response rating, Canarygrass): 10% | pest or weed control at 250 g/ha (canarygrass; 250 g ai/ha, scale 0 to 100 (0 no effect, 100 complete control), read-out: Plant response rating, Canarygrass): 25% | pest or weed control at 16 g/ha (lambsquarters [2]; 16 g ai/ha, scale 0 (no effect) to 100 (complete control), read-out: Plant response rating, Lambsquarters): 0% | pest or weed control at 31 g/ha (lambsquarters [2]; 31 g ai/ha, scale 0-100, read-out: Plant response rating, Lambsquarters): 0% | pest or weed control at 62 g/ha (lambsquarters [2]; 62 g ai/ha, scale 0-100, read-out: Plant response rating, Lambsquarters): 30% | pest or weed control at 125 g/ha (lambsquarters [2]; 125 g ai/ha, scale 0-100, read-out: Plant response rating, Lambsquarters): 40% | pest or weed control at 250 g/ha (lambsquarters [2]; 250 g ai/ha, scale 0-100, read-out: Plant response rating, Lambsquarters): 60% | pest or weed control at 16 g/ha (wild oat; 16 g ai/ha, scale 0-100, read-out: Plant response rating, Oat, Wild): 0% | pest or weed control at 31 g/ha (wild oat; 31 g ai/ha, scale 0 to 100 (0 no effect, 100 complete control), read-out: Plant response rating, Oat, Wild): 0% | pest or weed control at 62 g/ha (wild oat; 62 g ai/ha, scale 0 to 100 (0 no effect, 100 complete control), read-out: Plant response rating, Oat, Wild): 0% | pest or weed control at 125 g/ha (wild oat; 125 g ai/ha, scale 0 to 100 (0 no effect, 100 complete control), read-out: Plant response rating, Oat, Wild): 10% | pest or weed control at 250 g/ha (wild oat; 250 g ai/ha, scale 0 to 100 (0 no effect, 100 complete control), read-out: Plant response rating, Oat, Wild): 25% | pest or weed control at 31 g/ha (dayflower; [3]): 50% | pest or weed control at 62 g/ha (dayflower; [4]): 70% | pest or weed control at 125 g/ha (dayflower; [5]): 90% | pest or weed control at 8 g/ha (dayflower; [6]): 10% | pest or weed control at 16 g/ha (dayflower; [7]): 40%
